The subject of experiment [1] is people with ALS. The settings on record: injected intravenously; small subset of people with ALS; phase 3; cited from earlier work.
Experiment [2] deals with SOD1^G93A Tg rat spinal cord motor neurons. In words: Primary culture of SOD1^G93A Tg rat spinal cord motor neurons injured with glutamate, 48 h incubation. Format: cell-based. Conditions: glutamate 5 μM 20 min; for Protective effects of reference drugs after glutamate injury: concentration not given. As to the method: Female (Sprague Dawley, Janvier) were mated at Neuro-Sys (Gardanne, France) with Tg SOD1^G93A male rats (Taconic Bioscience, US). Pregnant females of 14 days of gestation were used for the culture. The day of the dissection, a piece of each embryo head (˜3 mm^3) was placed in a 2 mL DNase free tube with a new scalpel. The DNA was extracted with the SYBR Green Extract-N-Amp tissue PCR kit (Sigma Aldrich). Briefly, 120 μL of extraction solution was put on each piece of embryo heads. Then, they were incubated for 10 min at room temperature. At the end of this incubation period, the heads were incubated for 5 min at 95° C. Immediately after this last incubation, 100 μL of neutralizing solution was added; each DNA extract was diluted at 1/40 and stored at +4° C. until use. SOD1^G93A gene was determined using genomic fragment with human SOD1 primers (5′-[…]-3′ SEQ ID NO: 1; 5′-[…]-3′ SEQ ID NO:2). The SOD1 primers were diluted at 3 μM in sterile ultrapure water. Briefly, a mix for PCR was prepared with ultrapure water (4 μL per sample), primer at 3 μM (2 μL per sample) and Master Mix (10 μL per sample). In a PCR 96 wells plate, 16 μL of PCR mix was added in each well. 4 μL of each diluted DNA was added according to a plan deposit.
Rat spinal cord motor neurons were cultured as described by Boussicault et al., J Neurosci Res. 2020 December; 98 (12), 2435-50 and Wang et al. Hum. Mol. Genet., 2013 December 1; 22 (23), 4706-19. Pregnant female rats of 14 days of gestation were killed by cervical dislocation. The culture was carried out as described in example 1.
On day 13, culture medium was removed and cultures were exposed to the test compounds: N-(3-(4-(3-(diisobutylamino)propyl)piperazin-1-yl)propyl)-1H-benzo[d]imidazol-2-amine) sesqui-succinate salt Form 1, in comparison to Riluzole and Edaravone, and glutamate (5 μM) for 20 min at 37° C. in defined medium. After glutamate exposure, the cultures were washed with defined medium at 37° C. then placed in fresh culture medium containing the test compound, Riluzole or Edavarone for additional 48h.
• The end point evaluation was carried out as described in example 1.
(§1) The statistical analysis was carried out as described in example 1.

Experiment [3] has as its system neuromuscular junctions in co-culture of human myoblasts and rat spinal cord explants. The experiment in a line: Co-culture of human myoblasts and rat spinal cord explants (neuromuscular junctions) injured with glutamate. The settings on record: glutamate 60 μM 20 min, 48 h incubation. Format: cell-based.
Experiment [4] concerns Rat spinal cord motor neurons (MN). In words: Rat primary spinal cord motor neurons injured with glutamate, 48 h incubation with compound. Format: cell-based. The settings on record: glutamate 5 μM 20 min. As to the method:
Rat spinal cord motor neurons (MN) were cultured as previously described by Boussicault et al., J Neurosci Res. 2020 December; 98 (12), 2435-50 and Wang et al. Hum. Mol. Genet., 2013-12-1; 22 (23), 4706-19. Pregnant female rats of 14 days gestation (Rats Wistar; Janvier Labs France) were killed using a deep anesthesia with CO2 chamber followed by cervical dislocation. Then, embryos (E14) were removed from the uterus and immediately placed in ice-cold L15 Leibovitz medium with a 2% penicillin (10,000 U/mL) and streptomycin (10 mg/mL) solution (PS) and 1% bovine serum albumin (BSA). Spinal cords were removed and placed in ice-cold medium of Leibovitz (L15). Spinal cords were treated for 20 min at 37° C. with a trypsin-Ethylenediaminetetraacetic acid (EDTA) solution at a final concentration of 0.05% trypsin and 0.02% EDTA. The dissociation was stopped by the addition of Dulbecco's modified Eagle's medium (DMEM) with 4.5 g/liter of glucose, containing DNAse I grade II (final concentration 0.5 mg/mL) and 10% fetal calf serum (FCS). Cells were mechanically dissociated by three forced passages through the tip of a 10-mL pipette. Cells were then centrifuged at 515×g for 10 min at +4° C. The supernatant was discarded, and the pellet was resuspended in a defined culture medium consisting of Neurobasal medium with a 2% solution of B27 supplement, 2 mmol/liter of L-glutamine, 2% of PS solution, and 10 ng/ml of brain-derived neurotrophic factor (BDNF). Viable cells were counted in a Neubauer cytometer, using the trypan blue exclusion test. The cells were seeded at a density of 20,000 per well in 96-well plates precoated with poly-L-lysine and cultured at 37° C. in an air (95%)-CO2 (5%) incubator. The medium was changed every 2 days.
On day 13 of culture, glutamate was added to a final concentration of 5 μM diluted in control medium in presence of the sesqui-succinate Form 1 for 20 min. After 20 min, glutamate was washed and fresh culture medium with the sesqui-succinate Form 1 was added for 48 hours.
After 15 days of culture (48h after the glutamate injury), the cell culture supernatant was collected and the spinal cord MNs were fixed by a cold solution of ethanol (95%) and acetic acid (5%) for 5 min at −20° C. for immunostaining. Cells were washed twice in PBS. Cell membranes were permeabilized and non-specific sites were blocked with a solution of PBS containing 0.1% of saponin and 1% FCS for 15 min at room temperature. Then, cells were incubated for 2 hours with: • a) mouse monoclonal antibody anti-microtubule associated protein 2 (MAP-2) at dilution of 1/400 in PBS containing 1% fetal calf serum and 0.1% of saponin. This antibody binds specifically MAP-2 present in cell bodies and neurites of all MNs. […] Cytoplasmic localization of TDP43 was investigated.
Nuclei of neurons were counterstained with the fluorescent dye (Hoechst).
For each condition, 30 pictures (representative of the whole well area) per well were automatically taken using ImageXpress (Molecular Devices) with 20× magnification. All images were taken under the same conditions (exposition time, gain and laser intensity). Analysis of different endpoints, were automatically performed using Custom Module Editor (Molecular Devices). Motoneurons (MAP-2) were distinguished from interneurons (staining MAP-2) using the following morphological criteria: a cell body diameter […] and the presence of a minimum of three neuritic processes (Ferraiuolo et al. Brain 2011:134; 2627-2641).
The endpoints were: • survival of MNs (MAP-2 staining number of MNs) • neurite network of MNs (MAP-2 staining, total neurite length expressed in μm) • cytoplasmic TDP43 (extranuclear, eTDP43) in MAP-2 positive MNs (overlapping between MAP-2 and cytoplasmic TDP-43 in μm^2). Results are expressed as the ratio of the overlapping MAP-2/TDP-43 per number of MNs.
All values are expressed as mean+/−SEM. Statistical analyses were performed using one-way ANOVA followed by PLSD Fisher test. […]

Experiment [5] shares this test system. In words: Rat primary spinal cord motor neurons injured with glutamate, 24 h pre-incubation + 24 h post-injury incubation. The format is cell-based. As to the method: The culture was carried out as described in example 1.
On day 12 of culture, primary motor neurons were treated with the sesqui-succinate Form 1 for 24 hours. On day 13 of culture, glutamate was added to a final concentration of 5 µM diluted in control medium in presence of the sesqui-succinate salt Form 1 for 20 min. After 20 min, glutamate was washed and fresh culture medium with the sesqui-succinate Form 1 was added for an additional 24 hours.
The end point evaluation was carried out as described in example 1.
as §1

[6] abbreviates: 30 nM to 300 nM, 48 h incubation.
Setting [7] is: 30 nM to 300 nM, 24 h pre-incubation + 24 h incubation.

In the case of `CC1=NN(c2ccccc2)C(=O)C1` [Edaravone, reference compound], the “Decline of ALS Functional Rating Scale-Revised score compared with placebo” value in experiment [1] is listed as “significantly smaller decline”. Further, in experiment [2] (FIG. 9), the “Protective effects of reference drugs after glutamate injury” value is “protective effects”.

“N-(3-(4-(3-(diisobutylamino)propyl)piperazin-1-yl)propyl)-1H-benzo[d]imidazol-2-amine sesqui-succinate salt [sesqui-succinate salt Form 1]”: in experiment [3] (300 nM), the “Neuroprotective effects on neuromuscular junctions and neurite network” value is on record as “neuroprotective effects on a dose-dependent manner”. Besides, in experiment [3] (300 nM, versus glutamate, FIG. 10A), the “Number of NMJs” value is given as “increased”. The “Total area of NMJs” value in experiment [3] (300 nM, versus glutamate, FIG. 10B) is on record as “increased”. The “Total MNs neurite network (NFH)” value in experiment [3] (300 nM, versus glutamate, FIG. 10C) was “increased”. The “Protective effects in comparison to Riluzole” value in experiment [3] is given as “comparable to those of Riluzole”. The “Motor neuron survival (number of MAP-2 positive MNs), mean, percentage of control” value in experiment [4] (30 nM (maximal effect), then 48 h with compound, glutamate alone mean 58%, FIG. 7A) amounted to 79%. Also, in experiment [4] (setting [6]), the “Effect on motor neuron survival compared to the glutamate condition” value was “positive and significant effect”; the “Effect on neurite network after glutamate injury” value is on record as “able to improve the neurite network”. Also, in experiment [4] (100 nM (maximal effect), 48 h incubation, glutamate alone mean 62%, FIG. 7B), the “Neurite network integrity (MAP-2 total neurite length), mean, percentage of control” value is reported as 77%. In addition, the “Reduction of accumulation of TDP-43 in the cytoplasm (extranuclear TDP-43)” value in experiment [4] (300 nM, 48 h incubation, glutamate alone mean 135% of control, FIG. 7C) is recorded as “up to 17%”. Further, in experiment [4] (30 to 300 nM, 48 h incubation), the “Effect on accumulation of TDP-43 in the cytoplasm (extranuclear TDP-43)” value was “significantly reduce”. In addition, in experiment [2] (3 nM to 100 nM), the “Protective effect on neuronal survival, dose relation” value is reported as “dose-dependent” and the “Protective effect on the distribution of TDP-43, dose relation” value is on record as “dose-dependent”. Also, in experiment [2] (3 nM to 100 nM, FIG. 9), the “Neuroprotection (number of MNs, neurite network, TDP-43 distribution) after glutamate injury” value was “neuroprotective”. For the same compound, the “Protective effects in comparison to Riluzole and Edaravone” value in experiment [2] (100 nM) is “comparable to those of Riluzole or Edaravone”. Besides, in experiment [5] (setting [7]), the “Effect on motor neuron survival compared to the glutamate condition” value was “positive and significant effect”; the “Effect on neurite network after glutamate damage” value was “able to protect the neurite network”. Moreover, the “Reduction of abnormal distribution of TDP-43 (extranuclear TDP-43)” value in experiment [5] (30 nM to 300 nM, 24 h pre-incubation + 24 h incubation, glutamate alone mean 139% of control, FIG. 8C) was “up to 14%”. Moreover, in experiment [5] (300 nM (maximal effect), 24 h pre-incubation + 24 h incubation, glutamate alone mean 60%, FIG. 8B), the “Neurite network integrity, mean, percentage of control” value is recorded as 81%. Further, in experiment [5] (300 nM (maximal effect), 24 h pre-incubation, glutamate 5 µM 20 min, 24 h post-injury incubation, glutamate alone mean 62%, FIG. 8A), the “Motor neuron survival, mean, percentage of control” value worked out at 79%.

Regarding `Nc1nc2ccc(OC(F)(F)F)cc2s1` [Riluzole, reference compound], the “Protective effects of reference drug after glutamate injury” value in experiment [3] (concentration not given, FIG. 10) is given as “protective effects”. Further, the “Protective effects of reference drugs after glutamate injury” value in experiment [2] (FIG. 9) is “protective effects”.
